Data: EP4722207A1, “OXOISOINDOLINYL-SUBSTITUTED TETRAHYDROPYRIMIDINEDIONE DERIVATIVE AND USE THEREOF” (Gluetacs Therapeutics (Shanghai) Co., Ltd., priority 2023, dated 2024)

Experiments:
Type in all cases: cell-based
[1] = biological target: T1, GSPT1 (Homo sapiens, UniProt P15170+Q96SW2); experiment: Western-blot assay, substrate protein degradation in hPBMCs: GSPT1; conditions: for substrate protein remaining % GSPT1: 24 hours of compound treatment, 50 nM and 500 nM; for GSPT1 substrate protein remaining %: compounds at 50 nM and 500 nM, 24 hours
T1 construct: effects of the compounds of the present disclosure on the expression of target proteins in cells; endogenous in cells; host or cells: human PBMCs (hPBMCs)
Method: (§1) Conventional Western blot assay was performed to evaluate the effects of the compounds of the present disclosure on the expression of target proteins in cells. • (1) Cell Seeding and Protein Harvesting: Human peripheral blood mononuclear cells (hPBMCs) at a density of 1x10^6 cells/mL were thawed according to the PBMC Recovery Protocol (Milecell Biotechnologies Inc, Shanghai). […] After 24 hours of compounds treatment, cells were harvested and lysed in RIPA protein lysate containing protease inhibitors on ice for 30 min, followed by centrifugation. The supernatant was aspirated as the extracted total cell protein. The protein concentration of the supernatant was determined using the conventional BCA (Bicinchoninic Acid) assay. • (2) To the collected supernatant, 5X SDS sample loading buffer was added, followed by denaturation at 95°C for 5 minutes. The denatured samples were then separated by SDS-PAGE electrophoresis on a polyacrylamide gel. Proteins were transferred to a nitrocellulose membrane (0.45 µm NC membrane), blocked with blocking buffer at room temperature for 1 hour, and subjected to antibody incubation and development procedures according to the antibody manufacturer's instructions (Cell Signaling Technology).
(§2) Half-Maximal Degradation Concentration value (the drug concentration required for degrading proteins by 50%, abbreviated as DC50) reads method: comparing the grayscale values of Western blot bands from drug-treated samples with those from blank DMSO-treated controls, and identifying the drug concentration range at which the grayscale value is half that of the DMSO-treated control bands.
(§3) DC50 values can be calculated using ImageJ software to measure grayscale values of Western blot bands from drug-treated samples. The concentration-response curve is fitted to estimate the drug concentration corresponding to half the grayscale value.
(§4) Target protein remaining (%) refers to the percentage of target protein remaining in cells after treatment with protein degrader compounds.
(§5) Calculation method for target protein remaining (%): Use ImageJ software to measure grayscale values of Western blot bands from drug (protein degrader)-treated samples. The grayscale value of drug-treated bands is divided by that of internal control protein bands, and the resulting quotient is normalized to obtain the relative percentage of remaining target protein after protein degrader treatment. Target protein degradation rate(%) = 1−target protein remaining(%). [formula]

[2] = biological target: T2, IKZF1 (Homo sapiens, UniProt Q13422+Q96SW2); experiment: Western-blot assay, substrate protein degradation in hPBMCs: IKZF1; conditions: for substrate protein remaining % IKZF1: 24 hours of compound treatment, 50 nM and 500 nM; for IKZF1 substrate protein remaining %: compounds at 50 nM and 500 nM, 24 hours
T2 construct: effects of the compounds of the present disclosure on the expression of target proteins in cells; endogenous in cells; host or cells: human PBMCs (hPBMCs)
Method: as §1, §2, §3, §4, §5

[3] = biological target: T3, IKZF2 (Homo sapiens, UniProt Q96SW2+Q9UKS7); experiment: Western-blot assay, substrate protein degradation in hPBMCs: IKZF2; conditions: for substrate protein remaining % IKZF2: 24 hours of compound treatment, 50 nM and 500 nM; for IKZF2 substrate protein remaining %: compounds at 50 nM and 500 nM, 24 hours
T3 construct: effects of the compounds of the present disclosure on the expression of target proteins in cells; endogenous in cells; host or cells: human PBMCs (hPBMCs)
Method: as §1, §2, §3, §4, §5

[4] = biological target: T4, IKZF3 (Homo sapiens, UniProt Q96SW2+Q9UKT9); experiment: Western-blot assay, substrate protein degradation in hPBMCs: IKZF3; conditions: for substrate protein remaining % IKZF3: 24 hours of compound treatment, 50 nM and 500 nM; for IKZF3 substrate protein remaining %: compounds at 50 nM and 500 nM, 24 hours
T4 construct: effects of the compounds of the present disclosure on the expression of target proteins in cells; endogenous in cells; host or cells: human PBMCs (hPBMCs)
Method: as §1, §2, §3, §4, §5

[5] = biological target: T5, WEE1 (Homo sapiens, UniProt P30291+Q96SW2); experiment: Western-blot assay, substrate protein degradation in hPBMCs: WEE1; conditions: for substrate protein remaining % WEE1: 24 hours of compound treatment, 50 nM and 500 nM; for WEE1 substrate protein remaining %: compounds at 50 nM and 500 nM, 24 hours
T5 construct: effects of the compounds of the present disclosure on the expression of target proteins in cells; endogenous in cells; host or cells: human PBMCs (hPBMCs)
Method: as §1, §2, §3, §4, §5

[6] = biological target: T6, CK1α (Homo sapiens, UniProt P48729+Q96SW2); experiment: Western-blot assay, substrate protein degradation in hPBMCs: CK1α; conditions: for substrate protein remaining % CK1α: 24 hours of compound treatment, 50 nM and 500 nM; for CK1α substrate protein remaining %: compounds at 50 nM and 500 nM, 24 hours
T6 construct: effects of the compounds of the present disclosure on the expression of target proteins in cells; endogenous in cells; host or cells: human PBMCs (hPBMCs)
Method: as §1, §2, §3, §4, §5

T4 sequence (Q9UKT9 whole entry): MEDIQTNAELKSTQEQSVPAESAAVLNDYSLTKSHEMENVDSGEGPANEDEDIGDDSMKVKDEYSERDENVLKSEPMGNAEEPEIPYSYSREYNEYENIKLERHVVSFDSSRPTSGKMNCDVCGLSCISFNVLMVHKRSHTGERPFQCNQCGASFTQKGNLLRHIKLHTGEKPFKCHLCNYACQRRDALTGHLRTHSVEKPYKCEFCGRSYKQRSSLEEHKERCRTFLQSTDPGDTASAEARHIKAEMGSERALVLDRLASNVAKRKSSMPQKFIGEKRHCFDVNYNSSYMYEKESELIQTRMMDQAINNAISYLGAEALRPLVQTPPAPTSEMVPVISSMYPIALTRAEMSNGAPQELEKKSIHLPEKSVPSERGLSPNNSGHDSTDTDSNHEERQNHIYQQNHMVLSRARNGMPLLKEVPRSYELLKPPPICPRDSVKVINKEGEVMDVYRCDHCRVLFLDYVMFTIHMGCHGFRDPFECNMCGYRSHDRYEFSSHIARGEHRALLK
T4 sequence (Q96SW2 whole entry): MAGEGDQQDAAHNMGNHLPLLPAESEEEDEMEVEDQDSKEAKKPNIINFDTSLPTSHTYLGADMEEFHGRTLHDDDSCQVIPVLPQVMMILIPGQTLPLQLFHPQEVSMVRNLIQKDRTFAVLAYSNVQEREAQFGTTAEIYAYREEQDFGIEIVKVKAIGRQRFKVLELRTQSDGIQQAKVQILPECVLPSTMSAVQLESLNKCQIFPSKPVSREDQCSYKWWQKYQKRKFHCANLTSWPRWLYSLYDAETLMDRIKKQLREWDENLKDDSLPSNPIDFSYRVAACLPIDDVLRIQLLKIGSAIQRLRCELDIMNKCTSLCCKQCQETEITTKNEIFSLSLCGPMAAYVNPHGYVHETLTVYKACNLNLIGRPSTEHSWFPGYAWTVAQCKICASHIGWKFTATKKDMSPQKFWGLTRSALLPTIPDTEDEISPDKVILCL
T4 sequence (Q16531 whole entry partner): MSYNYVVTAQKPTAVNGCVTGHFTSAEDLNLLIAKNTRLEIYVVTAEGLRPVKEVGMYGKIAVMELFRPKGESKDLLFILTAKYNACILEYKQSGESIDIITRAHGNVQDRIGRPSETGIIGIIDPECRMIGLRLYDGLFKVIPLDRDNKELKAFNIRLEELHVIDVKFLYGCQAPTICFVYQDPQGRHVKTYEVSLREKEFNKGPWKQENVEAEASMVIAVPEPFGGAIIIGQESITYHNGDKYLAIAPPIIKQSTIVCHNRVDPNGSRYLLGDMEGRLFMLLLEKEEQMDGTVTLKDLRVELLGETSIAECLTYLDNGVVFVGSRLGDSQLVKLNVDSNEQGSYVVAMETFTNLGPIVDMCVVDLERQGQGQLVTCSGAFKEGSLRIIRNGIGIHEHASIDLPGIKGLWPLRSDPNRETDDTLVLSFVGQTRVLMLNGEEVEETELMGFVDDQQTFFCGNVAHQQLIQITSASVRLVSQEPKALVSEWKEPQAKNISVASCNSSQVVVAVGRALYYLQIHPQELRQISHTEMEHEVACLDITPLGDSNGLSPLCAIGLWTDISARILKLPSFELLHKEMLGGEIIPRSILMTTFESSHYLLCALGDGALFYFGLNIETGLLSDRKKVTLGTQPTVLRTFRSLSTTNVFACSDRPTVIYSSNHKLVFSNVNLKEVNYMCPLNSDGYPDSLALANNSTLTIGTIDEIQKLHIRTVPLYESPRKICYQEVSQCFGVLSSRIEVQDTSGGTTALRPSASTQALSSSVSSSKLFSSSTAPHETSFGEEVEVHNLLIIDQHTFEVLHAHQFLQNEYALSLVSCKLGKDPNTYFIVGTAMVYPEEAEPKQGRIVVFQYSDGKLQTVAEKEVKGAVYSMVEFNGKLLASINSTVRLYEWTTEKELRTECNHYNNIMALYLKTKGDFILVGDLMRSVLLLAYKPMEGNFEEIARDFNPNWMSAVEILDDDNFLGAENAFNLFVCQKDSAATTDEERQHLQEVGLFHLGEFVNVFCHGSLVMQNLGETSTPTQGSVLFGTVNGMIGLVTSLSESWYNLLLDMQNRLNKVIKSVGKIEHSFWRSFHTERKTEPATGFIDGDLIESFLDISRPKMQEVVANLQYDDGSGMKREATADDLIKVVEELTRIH
T5 sequence (P30291 whole entry): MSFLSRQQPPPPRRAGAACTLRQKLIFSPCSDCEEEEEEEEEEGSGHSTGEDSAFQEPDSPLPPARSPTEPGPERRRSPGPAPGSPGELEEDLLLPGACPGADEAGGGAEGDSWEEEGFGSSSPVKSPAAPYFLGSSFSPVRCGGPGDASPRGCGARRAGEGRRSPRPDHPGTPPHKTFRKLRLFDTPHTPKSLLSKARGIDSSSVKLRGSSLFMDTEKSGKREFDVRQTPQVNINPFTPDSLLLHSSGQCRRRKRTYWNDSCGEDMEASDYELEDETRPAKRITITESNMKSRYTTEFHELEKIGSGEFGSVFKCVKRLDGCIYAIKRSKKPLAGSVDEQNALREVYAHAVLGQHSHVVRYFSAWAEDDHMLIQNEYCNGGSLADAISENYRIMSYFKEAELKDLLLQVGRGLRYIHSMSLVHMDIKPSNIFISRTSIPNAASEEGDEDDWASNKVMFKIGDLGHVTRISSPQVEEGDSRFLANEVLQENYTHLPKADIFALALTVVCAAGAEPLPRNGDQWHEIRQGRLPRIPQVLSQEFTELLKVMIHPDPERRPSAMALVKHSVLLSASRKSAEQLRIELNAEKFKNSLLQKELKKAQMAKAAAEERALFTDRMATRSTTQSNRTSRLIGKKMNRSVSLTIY
T5 sequence (Q96SW2 whole entry): as the sequence (Q96SW2 whole entry) above
T5 sequence (Q16531 whole entry partner): as the sequence (Q16531 whole entry partner) above
T6 sequence (P48729 whole entry): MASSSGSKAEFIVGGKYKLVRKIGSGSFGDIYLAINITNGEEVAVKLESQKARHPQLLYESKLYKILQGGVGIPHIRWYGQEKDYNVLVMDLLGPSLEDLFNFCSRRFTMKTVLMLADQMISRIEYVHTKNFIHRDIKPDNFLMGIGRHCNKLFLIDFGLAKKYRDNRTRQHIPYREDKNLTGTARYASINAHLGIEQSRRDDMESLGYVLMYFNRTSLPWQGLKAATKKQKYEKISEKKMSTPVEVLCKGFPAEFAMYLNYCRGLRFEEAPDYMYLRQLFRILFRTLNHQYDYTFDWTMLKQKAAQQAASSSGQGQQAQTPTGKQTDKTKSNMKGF
T6 sequence (Q96SW2 whole entry): as the sequence (Q96SW2 whole entry) above
T6 sequence (Q16531 whole entry partner): as the sequence (Q16531 whole entry partner) above
T2 sequence (Q13422 whole entry): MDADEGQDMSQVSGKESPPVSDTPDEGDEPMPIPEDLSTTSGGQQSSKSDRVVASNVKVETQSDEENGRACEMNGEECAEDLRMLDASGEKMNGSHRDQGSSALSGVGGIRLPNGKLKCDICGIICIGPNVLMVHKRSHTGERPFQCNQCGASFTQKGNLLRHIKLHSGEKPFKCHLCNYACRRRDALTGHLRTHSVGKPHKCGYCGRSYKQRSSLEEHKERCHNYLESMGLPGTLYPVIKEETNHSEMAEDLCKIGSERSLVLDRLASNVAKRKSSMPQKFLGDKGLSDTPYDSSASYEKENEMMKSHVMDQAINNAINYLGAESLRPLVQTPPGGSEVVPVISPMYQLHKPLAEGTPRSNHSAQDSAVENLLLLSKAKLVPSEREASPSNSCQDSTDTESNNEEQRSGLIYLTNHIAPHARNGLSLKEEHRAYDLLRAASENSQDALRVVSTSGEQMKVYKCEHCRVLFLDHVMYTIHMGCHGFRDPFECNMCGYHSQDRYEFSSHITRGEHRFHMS
T2 sequence (Q96SW2 whole entry): as the sequence (Q96SW2 whole entry) above
T2 sequence (Q16531 whole entry partner): as the sequence (Q16531 whole entry partner) above
T1 sequence (P15170 whole entry): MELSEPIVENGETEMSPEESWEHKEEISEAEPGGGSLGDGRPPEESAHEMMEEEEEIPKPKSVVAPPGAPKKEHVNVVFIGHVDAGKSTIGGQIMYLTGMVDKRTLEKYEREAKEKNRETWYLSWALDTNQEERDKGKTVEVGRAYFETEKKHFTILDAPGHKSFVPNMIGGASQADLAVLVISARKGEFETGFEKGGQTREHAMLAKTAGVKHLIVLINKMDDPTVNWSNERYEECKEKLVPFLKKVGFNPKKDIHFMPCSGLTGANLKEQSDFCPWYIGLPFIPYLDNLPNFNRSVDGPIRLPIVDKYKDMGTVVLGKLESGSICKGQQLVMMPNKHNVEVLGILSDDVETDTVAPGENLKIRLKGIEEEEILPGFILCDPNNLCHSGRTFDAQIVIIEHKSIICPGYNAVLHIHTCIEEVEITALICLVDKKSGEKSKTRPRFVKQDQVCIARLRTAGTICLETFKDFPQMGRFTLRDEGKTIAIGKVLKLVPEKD
T1 sequence (Q96SW2 whole entry): as the sequence (Q96SW2 whole entry) above
T1 sequence (Q16531 whole entry partner): as the sequence (Q16531 whole entry partner) above

SMILES	substrate protein remaining % GSPT1 [1]	substrate protein remaining % IKZF1 [2]	substrate protein remaining % IKZF2 [3]	substrate protein remaining % IKZF3 [4]	substrate protein remaining % WEE1 [5]	substrate protein remaining % CK1α [6]	GSPT1 substrate protein remaining % [1]	IKZF1 substrate protein remaining % [2]	IKZF2 substrate protein remaining % [3]	IKZF3 substrate protein remaining % [4]	WEE1 substrate protein remaining % [5]	CK1α substrate protein remaining % [6]
Cc1cscc1C1CCN(Cc2ccc3c(c2)CN(N2CCC(=O)NC2=O)C3=O)CC1 [GT-07372, 1-(5-((4-(4-methylthiophen-3-yl)piperidin-1-yl)methyl)-1-oxoisoindolin-2-yl)dihydropyrimidine-2,4(1H,3H)-dione]	A (0% ≤ substrate protein remaining % ≤ 80%)	B (80%< substrate protein remaining %≤ 100%)	B (80%< substrate protein remaining %≤ 100%)	A (0% ≤ substrate protein remaining % ≤ 80%)	B (80%< substrate protein remaining %≤ 100%)	B (80%< substrate protein remaining %≤ 100%)	–	–	–	–	–	–
Cc1ccc(N2CCN(Cc3ccc4c(c3)CN(N3CCC(=O)NC3=O)C4=O)CC2)s1 [GT-05083, 1-(5-((4-(5-methylthiophen-2-yl)piperazin-1-yl)methyl)-1-oxoisoindolin-2-yl)dihydropyrimidine-2,4(1H,3H)-dione]	–	–	–	–	–	–	B ("B" is defined as 80%< substrate protein remaining %≤ 100%)	B ("B" is defined as 80%< substrate protein remaining %≤ 100%)	A ("A" is defined as 0% ≤ substrate protein remaining % ≤ 80%)	B ("B" is defined as 80%< substrate protein remaining %≤ 100%)	B ("B" is defined as 80%< substrate protein remaining %≤ 100%)	B ("B" is defined as 80%< substrate protein remaining %≤ 100%)
O=C1CCN(N2C(=O)c3ccc(CN4CCC(c5ccccc5)CC4)cc3C2=O)C(=O)N1 [GT-06803, 2-(2,4-dioxotetrahydropyrimidin-1(2H)-yl)-5-((4-phenylpiperidin-1-yl)methyl)isoindoline-1,3-dione]	–	–	–	–	–	–	B ("B" is defined as 80%< substrate protein remaining %≤ 100%)	B ("B" is defined as 80%< substrate protein remaining %≤ 100%)	B ("B" is defined as 80%< substrate protein remaining %≤ 100%)	B ("B" is defined as 80%< substrate protein remaining %≤ 100%)	B ("B" is defined as 80%< substrate protein remaining %≤ 100%)	A ("A" is defined as 0% ≤ substrate protein remaining % ≤ 80%)
C[C@@H]1CN(C(c2ccccc2)c2ccccc2)CCN1Cc1ccc2c(c1)C(=O)N(N1CCC(=O)NC1=O)C2=O [GT-06449, (R)-5-((4-benzhydryl-2-methylpiperazin-1-yl)methyl)-2-(2,4-dioxotetrahydropyrimidin-1(2H)-yl)isoindoline-1,3-dione]	–	–	–	–	–	–	A ("A" is defined as 0% ≤ substrate protein remaining % ≤ 80%)	B ("B" is defined as 80%< substrate protein remaining %≤ 100%)	A ("A" is defined as 0% ≤ substrate protein remaining % ≤ 80%)	A ("A" is defined as 0% ≤ substrate protein remaining % ≤ 80%)	B ("B" is defined as 80%< substrate protein remaining %≤ 100%)	B ("B" is defined as 80%< substrate protein remaining %≤ 100%)
O=C1CCN(N2C(=O)c3ccc(CN4CCN(C(c5ccccc5)c5ccncc5)CC4)cc3C2=O)C(=O)N1 (stereo not drawn) [GT-06378, 2-(2,4-dioxotetrahydropyrimidin-1(2H)-yl)-5-((4-(phenyl(pyridin-4-yl)methyl)piperazin-1-yl)methyl)isoindoline-1,3-dione]	–	–	–	–	–	–	B ("B" is defined as 80%< substrate protein remaining %≤ 100%)	B ("B" is defined as 80%< substrate protein remaining %≤ 100%)	A ("A" is defined as 0% ≤ substrate protein remaining % ≤ 80%)	A ("A" is defined as 0% ≤ substrate protein remaining % ≤ 80%)	A ("A" is defined as 0% ≤ substrate protein remaining % ≤ 80%)	B ("B" is defined as 80%< substrate protein remaining %≤ 100%)
O=C1CCN(N2C(=O)c3ccc(CN4CCN(c5nc(N6CCOCC6)nc6c5SCC6)CC4)cc3C2=O)C(=O)N1 [GT-08450, 2-(2,4-dioxotetrahydropyrimidin-1(2H)-yl)-5-((4-(2-morpholino-6,7-dihydrothieno[3,2-d]pyrimidin-4-yl)piperazin-1-yl)methyl)isoindoline-1,3-dione]	A (0% ≤ substrate protein remaining % ≤ 80%)	B (80%< substrate protein remaining %≤ 100%)	B (80%< substrate protein remaining %≤ 100%)	B (80%< substrate protein remaining %≤ 100%)	B (80%< substrate protein remaining %≤ 100%)	B (80%< substrate protein remaining %≤ 100%)	–	–	–	–	–	–
O=C1CCN(N2C(=O)c3ccc(CN4CC=C(c5c[nH]c6ncccc56)CC4)cc3C2=O)C(=O)N1 [GT-05181, 5-((4-(1H-pyrrolo[2,3-b]pyridin-3-yl)-3,6-dihydropyridin-1(2H)-yl)methyl)-2-(2,4-dioxotetrahydropyrimidin-1(2H)-yl)isoindoline-1,3-dione]	–	–	–	–	–	–	B ("B" is defined as 80%< substrate protein remaining %≤ 100%)	B ("B" is defined as 80%< substrate protein remaining %≤ 100%)	B ("B" is defined as 80%< substrate protein remaining %≤ 100%)	B ("B" is defined as 80%< substrate protein remaining %≤ 100%)	A ("A" is defined as 0% ≤ substrate protein remaining % ≤ 80%)	B ("B" is defined as 80%< substrate protein remaining %≤ 100%)
O=C1CCN(N2Cc3cc(CN4CCN(c5ccc(F)cc5F)CC4)ccc3C2=O)C(=O)N1 [GT-06778, 1-(5-((4-(2,4-difluorophenyl)piperazin-1-yl)methyl)-1-oxoisoindolin-2-yl)dihydropyrimidine-2,4(1H,3H)-dione]	–	–	–	–	–	–	A ("A" is defined as 0% ≤ substrate protein remaining % ≤ 80%)	B ("B" is defined as 80%< substrate protein remaining %≤ 100%)	B ("B" is defined as 80%< substrate protein remaining %≤ 100%)	B ("B" is defined as 80%< substrate protein remaining %≤ 100%)	B ("B" is defined as 80%< substrate protein remaining %≤ 100%)	A ("A" is defined as 0% ≤ substrate protein remaining % ≤ 80%)
O=C1CCN(N2C(=O)c3ccc(CN4CCC(c5ccc(F)cc5)CC4)cc3C2=O)C(=O)N1 [GT-06878, 2-(2,4-dioxotetrahydropyrimidin-1(2H)-yl)-5-((4-(4-fluorophenyl)piperidin-1-yl)methyl)isoindoline-1,3-dione]	–	–	–	–	–	–	A ("A" is defined as 0% ≤ substrate protein remaining % ≤ 80%)	B ("B" is defined as 80%< substrate protein remaining %≤ 100%)	B ("B" is defined as 80%< substrate protein remaining %≤ 100%)	B ("B" is defined as 80%< substrate protein remaining %≤ 100%)	B ("B" is defined as 80%< substrate protein remaining %≤ 100%)	A ("A" is defined as 0% ≤ substrate protein remaining % ≤ 80%)
O=C1CCN(N2Cc3cc(CN4CCN(c5c[nH]c6ncccc56)CC4)ccc3C2=O)C(=O)N1 [GT-07502, 1-(5-((4-(1H-pyrrolo[2,3-b]pyridin-3-yl)piperazin-1-yl)methyl)-1-oxoisoindolin-2-yl)dihydropyrimidine-2,4(1H,3H)-dione]	A (0% ≤ substrate protein remaining % ≤ 80%)	A (0% ≤ substrate protein remaining % ≤ 80%)	B (80%< substrate protein remaining %≤ 100%)	B (80%< substrate protein remaining %≤ 100%)	A (0% ≤ substrate protein remaining % ≤ 80%)	A (0% ≤ substrate protein remaining % ≤ 80%)	–	–	–	–	–	–
